Results published in patent US8314250B2, “Sultam derivatives” (Hoffmann-La Roche Inc., priority 2009, dated 2012).
Counter-ions that a name gives are not always drawn.

Assays:
Format in all cases: cell-based
[1] = system: H196, a small cell lung cancer cell line; experiment: MTT tetrazolium dye proliferation assay; settings: H196 cells, 5 days; for IC50: 50% inhibition of cell proliferation; for IC90: 90% inhibition of cell proliferation
Method: Proliferation was evaluated in an adherent cell line by the tetrazolium dye assay according to the procedure of Denizot and Lang (F. Denizot and R. Lang J. Immunol. Methods 1986, 89, 271-277). The cell line used was H196, a small cell lung cancer cell line obtained from the ATCC (ATCC Number CRL-5823™). The cells were grown in RPMI 1640 medium supplemented with 2.5% fetal bovine serum.
Cells were seeded into clear 96 well tissue culture treated plates at 20,000 cells per well. Plates were incubated overnight at 37° C. in a humidified incubator with 5% CO2. The next day, test compounds were serially diluted to three times the final concentration in the appropriate growth medium. 50 μL of a 3× dilution of drug was added per well for a final volume of 150 uL/well. Six concentrations were tested for each compound ranging from 10 μM to 30 nM. […] 50 μL of 0.75% DMSO in growth media was added per well for a final volume of 150 uL/well. The plates were returned to the incubator and, after 5 days, the plates were analyzed as follows: 3-(4,5-dimethylthiazol-2-yl)-2,5-diphenyl-2H-tetrazolium bromide (thiazolyl blue; MTT; Sigma) was added to each well to yield a final concentration of 1.25 mg/mL. Plates were returned to the incubator for 3 hours. The MTT-containing medium was removed and the resulting formazan metabolite was solubilized in 100% ethanol while shaking for 10 minutes at room temperature. Absorbances were read in a plate reader at a wavelength of 570 nm with a 660 nm reference. The concentrations of compounds leading to 50% and 90% inhibition of cell proliferation were determined by using the curve-fitting functionality of Microsoft Excel from plots of the logarithm of the concentration versus percent inhibition. These concentrations represent the IC50 and IC90 values, respectively.

HeLa cells = experiment: CellTiter-Glo luminescent cell viability (cytotoxicity) assay; settings: 10 μM test compound, inhibition of luminescence compared to control cells; for inhibition at 10 µM: Homo sapiens, HeLa, 48 h, read-out: Activity (PCT_INHIB @ 10 μM)
Method: Cytotoxicity was assessed using Promega's CellTiter-Glo® luminescent cell viability assay (Promega Corporation, Madison, Wis., USA) as described in Promega Technical Bulletin TB288, revised August 2008. The assay was performed in HeLa cells at a maximum concentration tested of 10 μM of test compound. This assay measures the amount of adenosine triphosphate (ATP) present as a way of quantifying the presence and degree of metabolic activity in cell cultures.
Viable Hela cells were plated at a density of 3000 cells/well in 96 wells in black, clear bottom plates. Cells were allowed to attach to the plate by incubating overnight at 37° C. Test compounds were diluted in DMSO then further diluted in 10% FBS media. Media was removed from the cell plates and 50 μL of the solution was added to each well manually with the exception of the control well, which contained the same volume of 10% FBS media which includes 1% DMSO. Cells were incubated in the presence of compound undisturbed for 48 hours at 37° C. After the 48 hour compound exposure, 50 μL of the pCellTiter Glo® reagent was added. The cell plates were agitated on a shaker for 2 minutes to help lyse the cells. The plate was covered and read for luminescence.
Percent inhibition was calculated as follows: PCT_INHIB=100*[(U−T)/U] Where U represents the Luminescence of wells containing untreated cells and
T represents the Luminescence of wells containing compound-treated cells

H146 cell line = experiment: MTS tetrazolium assay (proliferation, non-adherent cell line); settings: H146 cells, 5 days; for IC50: 50% inhibition of cell proliferation; for IC90: 90% inhibition of cell proliferation
Method: Proliferation was evaluated in a non-adherent cell line using the MTS tetrazolium dye assay according to the procedure of Malich and colleagues (G. Malich et al. Toxicology 1997, 124, 179-192). The cell line used was H146 (ATCC Number HTB-173™). The cells were grown in RPMI 1640 medium supplemented with 2.5% fetal bovine serum.
Cells were seeded into clear 96 well tissue culture treated plates at 20,000 cells per well. Plates were incubated overnight at 37° C. in a humidified incubator with 5% CO2. The next day, test compounds were serially diluted to three times the final concentration in the appropriate growth medium. 50 μL of a 3× dilution of drug was added per well for a final volume of 150 uL/well. […] 50 μL of 0.75% DMSO in growth media was added per well for a final volume of 150 uL/well. The plates were returned to the incubator. After 5 days CellTiter 96® AQueous One Solution (Promega Corporation, Madison, Wis., USA) (25 μL/well) was added to each well and the plates were placed back in the incubator for 2-3 h. The absorbance at 490 nm was measured for each well using a plate reader. The concentrations of compounds leading to 50% and 90% inhibition of cell proliferation were determined by using the curve-fitting functionality of Microsoft Excel from plots of the logarithm of the concentration versus percent inhibition. These concentrations represent the IC50 and IC90 values, respectively.

SMILES | inhibition at 10 µM (HeLa cells) [%] | other results
COc1ccc(Cl)c(CN(Cc2cccc(CN3C(C(=O)N[C@H]4C[C@H]5C[C@@H]([C@@H]4C)C5(C)C)CCS3(=O)=O)c2)[C@H](CN(C)C)CC(C)(C)C)c1F (single isomer, unassigned; epimer 1) [Example 25] | 96 | IC50 [1]: 1400 nM; IC90 [1]: 1900 nM; IC50 (H146 cell line): 1600 nM; IC90 (H146 cell line): 3100 nM
COc1ccc(Cl)c(CN(Cc2cccc(CN3C(C(=O)N[C@H]4C[C@H]5C[C@@H]([C@@H]4C)C5(C)C)CCS3(=O)=O)c2)[C@H](CN(C)C)CC(C)(C)C)c1F (single isomer, unassigned; epimer 2) [Example 26] |  | IC50 ([1]; NCI-H196, 120 h): 1300 nM; IC90 ([1]; NCI-H196, 120 h): 1800 nM; Activity (PCT_INHIB @ 10 μM) (HeLa cells; 48 hours, 10 µM): 97%; IC50 (H146 cell line): 700 nM; IC90 (H146 cell line): 1200 nM
Cc1ccc(O)c(CN(Cc2cccc(CN3C(C(=O)N[C@H]4C[C@H]5C[C@@H]([C@@H]4C)C5(C)C)CCS3(=O)=O)c2)[C@H](CN(C)C)CC(C)(C)C)c1 (stereo partly drawn) [Example 10, 2-(3-{[((S)-1-Dimethylaminomethyl-3,3-dimethyl-butyl)-(2-hydroxy-5-methyl-benzyl)-amino]-methyl}-benzyl)-1,1-dioxo-1λ^6-isothiazolidine-3-carboxylic acid((1S,2S,3S,5R)-2,6,6-trimethyl-bicyclo[3.1.1]hept-3-yl)-amide trifluoroacetate salt] | 96 | 
C[C@@H]1[C@@H](NC(=O)C2CCS(=O)(=O)N2Cc2cccc(CN(Cc3cccc4c3OCO4)[C@H](CN(C)C)CC(C)(C)C)c2)C[C@H]2C[C@@H]1C2(C)C (stereo partly drawn) [Example 17, 2-(3-{[Benzo[1,3]dioxol-4-ylmethyl-((S)-1-dimethylaminomethyl-3,3-dimethyl-butyl)-amino]-methyl}-benzyl)-1,1-dioxo-1λ^6-isothiazolidine-3-carboxylic acid((1S,2S,3S,5R)-2,6,6-trimethyl-bicyclo[3.1.1]hept-3-yl)-amide trifluoroacetate salt] | 96 | 
COc1ccc(Cl)c(CN(Cc2cccc(CN3C(C(=O)NC45CC6CC(CC(C6)C4)C5)CCS3(=O)=O)c2)[C@H](CN(C)C)CC(C)(C)C)c1F (stereo partly drawn) [Example 20, 2-(3-{[(6-Chloro-2-fluoro-3-methoxy-benzyl)-((S)-1-dimethylaminomethyl-3,3-dimethyl-butyl)-amino]-methyl}-benzyl)-1,1-dioxo-1λ^6-isothizolidine-3-carboxylic acid adamantan-1-ylamide] | 95 | 
COc1ccc(F)c(F)c1CN(Cc1cccc(CN2C(C(=O)N[C@H]3C[C@H]4C[C@@H]([C@@H]3C)C4(C)C)CCS2(=O)=O)c1)[C@@H](Cc1ccccc1)CN(C)C (stereo partly drawn) [Example 29, 2-(3-{[(2,3-Difluoro-6-methoxy-benzyl)-((S)-1-dimethylaminomethyl-2-phenyl-ethyl)-amino]-methyl}-benzyl)-1,1-dioxo-1λ^6-isothiazolidine-3-carboxylic acid((1S,2S,3S,5R)-2,6,6-trimethyl-bicyclo[3.1.1]hept-3-yl)-amide] | 95 | 
COc1ccc(Cl)c(CN(Cc2cccc(CN3C(C(=O)N[C@H]4CC5CCC4(C)C5(C)C)CCS3(=O)=O)c2)[C@H](CN(C)C)CC(C)(C)C)c1F (stereo partly drawn) [Example 28, 2-(3-{[(6-Chloro-2-fluoro-3-methoxy-benzyl)-((S)-1-dimethylaminomethyl-3,3-dimethyl-butyl)-amino]-methyl}-benzyl)-1,1-dioxo-1λ^6-isothiazolidine-3-carboxylic acid((S)-1,7,7-trimethyl-bicyclo[2.2.1]hept-2-yl)-amide] | 96 | 
COc1ccc(C(C)C)cc1CN(Cc1cccc(CN2C(C(=O)N[C@H]3C[C@H]4C[C@@H]([C@@H]3C)C4(C)C)CCS2(=O)=O)c1)[C@H](CN(C)C)CC(C)(C)C (stereo partly drawn) [Example 4, 2-(3-{[((S)-1-Dimethylaminomethyl-3,3-dimethyl-butyl)-(5-isopropyl-2-methoxy-benzyl)-amino]-methyl}-benzyl)-1,1-1λ^6-isothiazolidine-3-carboxylic acid((1S,2S,3S,5R)-2,6,6-trimethyl-bicyclo[3.1.1]hept-3-yl)-amide trifluoroacetate salt] | 96 | 
Cc1ccc(Oc2ccccc2CN(Cc2cccc(CN3C(C(=O)N[C@H]4C[C@H]5C[C@@H]([C@@H]4C)C5(C)C)CCS3(=O)=O)c2)[C@H](CN(C)C)CC(C)(C)C)cc1 (stereo partly drawn) [Example 7, 2-(3-{[((S)-1-Dimethylaminomethyl-3,3-dimethyl-butyl)-(2-p-tolyloxy-benzyl)-amino]-methyl}-benzyl)-1,1-dioxo-1λ^6-isothiazolidine-3-carboxylic acid((1S,2S,3S,5R)-2,6,6-trimethyl-bicyclo[3.1.1]hept-3-yl)-amide trifluoroacetate salt] | 58 | 
C[C@@H]1[C@@H](NC(=O)C2CCS(=O)(=O)N2Cc2cccc(CN(Cc3ccccc3I)[C@H](CN(C)C)CC(C)(C)C)c2)C[C@H]2C[C@@H]1C2(C)C (stereo partly drawn) [Example 2, 2-(3-{[((S)-1-Dimethylaminomethyl-3,3-dimethyl-butyl)-(2-iodo-benzyl)-amino]-methyl}-benzyl)-1,1-dioxo-1λ^6-isothiazolidine-3-carboxylic acid((1S,2S,3S,5R)-2,6,6-trimethyl-bicyclo[3.1.1]hept-3-yl)-amide trifluoroacetate salt] | 50 | 
